This note sets out measurements from patent US9353091B2 (priority 2009, dated 2016).

Experiment [1] deals with genotype 1b-Con1 subgenomic replicon cell line. In words: HCV Polymerase Replicon Assay (genotype 1b-Con1, luciferase reporter). It counts as cell-based. The settings on record: Hepatitis C virus, 72 h, 1b-Con1 replicon, three days. For orientation: Replicon systems follow genome replication, usually without infectious particles.
The target in experiment [2] is T1, HCV polymerase 1B (Δ21 NS5B) (Hepatitis C virus genotype 1b, UniProt P26663).
T1 construct: 20 to 50 nM Δ21 NS5B
T1 sequence (P26663 2420-2989, stated change not applied): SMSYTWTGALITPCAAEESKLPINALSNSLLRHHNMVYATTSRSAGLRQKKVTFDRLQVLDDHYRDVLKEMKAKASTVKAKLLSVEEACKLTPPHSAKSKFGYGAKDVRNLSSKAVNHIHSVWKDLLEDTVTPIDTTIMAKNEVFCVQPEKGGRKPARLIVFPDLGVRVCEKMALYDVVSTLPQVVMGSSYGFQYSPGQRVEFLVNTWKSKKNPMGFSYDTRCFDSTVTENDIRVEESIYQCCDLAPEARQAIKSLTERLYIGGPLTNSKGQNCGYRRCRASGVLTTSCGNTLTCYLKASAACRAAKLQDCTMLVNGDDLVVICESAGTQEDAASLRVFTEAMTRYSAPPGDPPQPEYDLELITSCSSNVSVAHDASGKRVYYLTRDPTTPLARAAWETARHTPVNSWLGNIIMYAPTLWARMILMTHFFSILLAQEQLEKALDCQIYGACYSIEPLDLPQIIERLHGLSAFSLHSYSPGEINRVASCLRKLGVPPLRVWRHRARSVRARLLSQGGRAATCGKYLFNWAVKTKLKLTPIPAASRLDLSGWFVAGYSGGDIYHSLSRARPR
Description: HCV Polymerase Inhibition Assay (1b). It counts as biochemical. Here is the method:
(§1) Reaction volume was 50 μL. The reaction was terminated by the addition of 1 volume of 4 mM spermine in 10 mM Tris-Cl pH 8.0, 1 mM EDTA. After incubation for at least 15 minutes at room temperature, the precipitated RNA was captured by filtering through a GF/B filter (Millipore) in a 96 well format. The filter plate was washed three times with 200 μL, each of 2 mM spermine, 10 mM Tris-Cl pH 8.0, 1 mM EDTA, and 2 times with ethanol. After air-drying, 30 μL, of Microscint 20 scintillation cocktail (Packard) was added to each well, and the retained cpm were determined by scintillation counting. […] Retained cpm were plotted vs. inhibitor concentration and fit to equation 1 using non-linear regression (ref. 1) to obtain the IC50 values: Retained cpm=A[sqrt{(IC50+It−Et)^2+4*IC50*Et}−(IC50+It−Et)]
(§2) Ref. Morrison, J. F. and S. R. Stone. 1985. Approaches to the study and analysis of the inhibition of enzymes by slow- and tight-binding inhibitors. Comments Mol. Cell. Biophys. 2: 347-368.
(§3) The sequence of the template RNA used was: 5′-[…] […] […] […] […] […] […] […] […] […] […] […] […] […] […] […] […]-3′ (SEQ ID NO: 1)

In experiment [3] the target is T2, HCV polymerase 1A (Δ21 NS5B) (Hepatitis C virus genotype 1a, UniProt P27958).
T2 construct: 20 to 50 nM Δ21 NS5B
T2 sequence (P27958 2421-2990, stated change not applied): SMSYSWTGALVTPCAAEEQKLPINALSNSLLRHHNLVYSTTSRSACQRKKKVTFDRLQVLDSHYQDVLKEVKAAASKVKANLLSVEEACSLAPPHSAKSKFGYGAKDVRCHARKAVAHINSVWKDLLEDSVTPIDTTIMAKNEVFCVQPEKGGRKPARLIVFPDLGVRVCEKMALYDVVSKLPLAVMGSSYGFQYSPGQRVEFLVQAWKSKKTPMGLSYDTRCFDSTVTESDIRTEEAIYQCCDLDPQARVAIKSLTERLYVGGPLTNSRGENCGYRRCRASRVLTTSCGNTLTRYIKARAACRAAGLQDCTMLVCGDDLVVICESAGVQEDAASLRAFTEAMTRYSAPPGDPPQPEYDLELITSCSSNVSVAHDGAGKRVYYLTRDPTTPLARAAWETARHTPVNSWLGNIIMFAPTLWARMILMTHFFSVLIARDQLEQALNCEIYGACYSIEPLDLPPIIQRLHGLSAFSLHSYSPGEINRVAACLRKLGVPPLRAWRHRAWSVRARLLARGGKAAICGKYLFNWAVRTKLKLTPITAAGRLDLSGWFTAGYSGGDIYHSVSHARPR
In words: HCV Polymerase Inhibition Assay (1a). It counts as biochemical. Here is the method: as §1, §2, §3

In experiment [4] the test system is genotype 1a-H77 subgenomic replicon cell line. Description: HCV Polymerase Replicon Assay (genotype 1a-H77, luciferase reporter). It counts as cell-based. The settings on record: Hepatitis C virus, 72 h, 1a-H77 replicon, three days.

One may read the EC50 as the concentration needed to bring the measured effect to its halfway point. High values mean lower potency in that assay, low ones higher potency in that assay. As usually defined, the IC50 is the concentration that inhibits the measured activity by half. A higher IC50 goes with a need for much substance. On to `COc1c(-c2ccc3cc(NS(C)(=O)=O)ccc3c2)cc(-c2ccc[nH]c2=O)cc1C(C)(C)C` [compound 9, N-(6-(3-tert-butyl-2-methoxy-5-(2-oxo-1,2-dihydropyridin-3-yl)phenyl)naphthalen-2-yl)methanesulfonamide], for which the EC50 in experiment [1] and in experiment [4] was not above 10 nM each time. Further, the IC50 was 10 to 100 nM in experiment [2] and less than 10 nM in experiment [3].
With `COc1c(-c2ccc3cc(NS(C)(=O)=O)ccc3c2)cc(-c2c[nH]c(=O)[nH]c2=O)cc1C(F)(F)C(F)(F)F` [compound 37, N-(6-(5-(2,4-dioxo-1,2,3,4-tetrahydropyrimidin-5-yl)-2-methoxy-3-(perfluoroethyl)phenyl)naphthalen-2-yl)methanesulfonamide], the EC50 in experiment [1] lay within 10 to 100 nM; in experiment [4], 100 to 1000 nM. Moreover, the figures for the 50% inhibitory concentration (IC50) in experiment [2] and in experiment [3] were 10 to 100 nM and less than 10 nM, respectively.
On to `COc1c(-c2ccc3cc(NS(C)(=O)=O)ccc3c2)cc(-c2c[nH]c(=O)[nH]c2=O)cc1C(C)(C)C` [compound 28, N-(6-(3-tert-butyl-5-(2,4-dioxo-1,2,3,4-tetrahydropyrimidin-5-yl)-2-methoxyphenyl)naphthalen-2-yl)methanesulfonamide], for which the EC50 in experiment [1] and in experiment [4] was not above 10 nM in each case. The IC50 is 10 to 100 nM in experiment [2] and less than 10 nM in experiment [3].
Take `COc1c(-c2ccc3cc(NS(C)(=O)=O)ccc3c2)cc(-c2cn(C)c(=O)n(C)c2=O)cc1C(C)(C)C` [compound 8, N-(6-(3-tert-butyl-5-(1,3-dimethyl-2,4-dioxo-1,2,3,4-tetrahydropyrimidin-5-yl)-2-methoxyphenyl)naphthalen-2-yl)methanesulfonamide]: the EC50 is 10 to 100 nM in experiment [1] and 100 to 1000 nM in experiment [4]. Besides, the IC50 in experiment [2] and in experiment [3] was 100 to 1000 nM throughout.
As for `COc1c(-c2ccc3cc(NS(C)(=O)=O)ccc3c2)cc(-n2ccccc2=O)cc1C(C)(C)C` [compound 30, N-(6-(3-tert-butyl-2-methoxy-5-(2-oxopyridin-1(2H)-yl)phenyl)naphthalen-2-yl)methanesulfonamide], the 50% effective concentration (EC50) in experiment [1] is 10 to 100 nM; in experiment [4], 100 to 1000 nM. Further, the IC50 in experiment [2] and in experiment [3] was 10 to 100 nM each time.
Turning to `COc1c(-c2ccc3c(c2)CCC3O)cc(-c2c[nH]c(=O)[nH]c2=O)cc1C(C)(C)C` (centres unmarked) [compound 13, 5-(3-tert-butyl-5-(1-hydroxy-2,3-dihydro-1H-inden-5-yl)-4-methoxyphenyl)pyrimidine-2,4(1H,3H)-dione], the EC50 in experiment [1] and in experiment [4] was more than 1000 nM in each case. Besides, the IC50 in experiment [2] and in experiment [3] was 100 to 1000 nM each time.
Regarding `COc1c(-c2ccc3cc(NS(C)(=O)=O)ccc3c2)cc(NC(C)=O)cc1C(C)(C)C` [compound 47, N-(3-tert-butyl-4-methoxy-5-(6-(methylsulfonamido)naphthalen-2-yl)phenyl)acetamide], the EC50 in experiment [1] is 100 to 1000 nM; in experiment [4], more than 1000 nM. For the same molecule, the IC50 was more than 1000 nM in experiment [2] and 100 to 1000 nM in experiment [3].
For `COc1c(-c2ccc3c(c2)CC=C3CNS(C)(=O)=O)cc(-c2cn(S(C)(=O)=O)c(=O)[nH]c2=O)cc1C(F)(F)F` [compound 52, N-((6-(2-methoxy-5-(1-(methylsulfonyl)-2,4-dioxo-1,2,3,4-tetrahydropyrimidin-5-yl)-3-(trifluoromethyl)phenyl)-1H-inden-3-yl)methyl)methanesulfonamide], the results for the EC50 in experiment [1] and in experiment [4] were not above 10 nM and 100 to 1000 nM, respectively. The IC50 in experiment [2] and in experiment [3] was 10 to 100 nM in each case.
For `COc1c(-c2ccc3cc(NS(C)(=O)=O)ccc3c2)cc(-c2c[nH]c(=O)[nH]c2=O)cc1-c1cnn(C)c1` [compound 41, N-(6-(5-(2,4-dioxo-1,2,3,4-tetrahydropyrimidin-5-yl)-2-methoxy-3-(1-methyl-1H-pyrazol-4-yl)phenyl)naphthalen-2-yl)methanesulfonamide], the EC50 in experiment [1] and in experiment [4] was more than 1000 nM each time. The IC50 in experiment [2] and in experiment [3] was 100 to 1000 nM in each case.
Take `CCNC(=O)Nc1cc(-c2ccc3cc(NS(C)(=O)=O)ccc3c2)c(OC)c(C(C)(C)C)c1` [compound 22, N-(6-(3-tert-butyl-5-(3-ethylureido)-2-methoxyphenyl)naphthalen-2-yl)methanesulfonamide]: the EC50 in experiment [1] and in experiment [4] was 100 to 1000 nM in each case. Besides, the IC50 in experiment [2] and in experiment [3] was 100 to 1000 nM throughout.
`COc1c(Br)cc(-c2c[nH]c(=O)[nH]c2=O)cc1C(F)(F)F` [compound 48, 5-(3-bromo-4-methoxy-5-(trifluoromethyl)phenyl)pyrimidine-2,4(1H,3H)-dione]: the EC50 in experiment [1] and in experiment [4] was more than 1000 nM throughout. In addition, the IC50 in experiment [2] and in experiment [3] was more than 1000 nM each time.
On to `COc1c(-c2ccc3c(c2)CC=C3CNS(C)(=O)=O)cc(-c2c[nH]c(=O)[nH]c2=O)cc1C(C)(C)C` [compound 3, N-((6-(3-tert-butyl-5-(2,4-dioxo-1,2,3,4-tetrahydropyrimidin-5-yl)-2-methoxyphenyl)-1H-inden-3-yl)methyl)methanesulfonamide], for which the EC50 in experiment [1] and in experiment [4] was not above 10 nM throughout. In addition, the IC50 in experiment [2] and in experiment [3] was less than 10 nM in each case.
For the molecule `COc1c(-c2ccc3cc(NS(C)(=O)=O)ccc3c2)cc(N2CCOC2=O)cc1C(C)(C)C` [compound 25, N-(6-(3-tert-butyl-2-methoxy-5-(2-oxooxazolidin-3-yl)phenyl)naphthalen-2-yl)methanesulfonamide], the concentration giving a half-maximal response (EC50) in experiment [1] and in experiment [4] was more than 1000 nM each time. The half-inhibitory concentration (IC50) in experiment [2] and in experiment [3] was 100 to 1000 nM each time.
Turning to `COc1c(-c2ccc3c(c2)CCC3=O)cc(-c2c[nH]c(=O)[nH]c2=O)cc1C(C)(C)C` [compound 12, 5-(3-tert-butyl-4-methoxy-5-(1-oxo-2,3-dihydro-1H-inden-5-yl)phenyl)pyrimidine-2,4(1H,3H)-dione], the EC50 in experiment [1] and in experiment [4] was 100 to 1000 nM in each case. For the same molecule, the IC50 in experiment [2] and in experiment [3] was 10 to 100 nM each time.
With `COc1c(-c2ccc3cc(NS(C)(=O)=O)ccc3c2)cc(N2CCCNC2=O)cc1C(C)(C)C` [compound 26, N-(6-(3-tert-butyl-2-methoxy-5-(2-oxotetrahydropyrimidin-1(2H)-yl)phenyl)naphthalen-2-yl)methanesulfonamide], the EC50 is not above 10 nM in experiment [1] and 10 to 100 nM in experiment [4]. The IC50 in experiment [2] and in experiment [3] was 10 to 100 nM each time.
In the case of `COc1c(-c2ccc3cc(NS(C)(=O)=O)ccc3c2)cc(-c2cn(C)c(=O)[nH]c2=O)cc1C(C)(C)C` [compound 7, N-(6-(3-tert-butyl-2-methoxy-5-(1-methyl-2,4-dioxo-1,2,3,4-tetrahydropyrimidin-5-yl)phenyl)naphthalen-2-yl)methanesulfonamide], the EC50 was not above 10 nM in experiment [1] and 10 to 100 nM in experiment [4]. For the same molecule, the IC50 is 10 to 100 nM in experiment [2] and less than 10 nM in experiment [3].
As to `COc1c(-c2ccc3cc(NS(C)(=O)=O)ccc3c2)cc(-c2c[nH]c(=O)[nH]c2=O)cc1-c1ccco1` [compound 40, N-(6-(5-(2,4-dioxo-1,2,3,4-tetrahydropyrimidin-5-yl)-3-(furan-2-yl)-2-methoxyphenyl)naphthalen-2-yl)methanesulfonamide], the EC50 was 10 to 100 nM in experiment [1] and 100 to 1000 nM in experiment [4]. Also, the IC50 in experiment [2] and in experiment [3] was less than 10 nM each time.
Consider `COc1c(Br)cc(-c2c[nH]c(=O)[nH]c2=O)cc1C(C)(C)C` [compound 5, 5-(3-bromo-5-tert-butyl-4-methoxyphenyl)pyrimidine-2,4(1H,3H)-dione], for which the concentration giving a half-maximal response (EC50) in experiment [1] and in experiment [4] was more than 1000 nM each time. Also, the IC50 in experiment [2] and in experiment [3] was more than 1000 nM each time.
Take `COc1c(-c2ccc3cc(NS(C)(=O)=O)ccc3c2)cc(N2CCCS2(=O)=O)cc1C(C)(C)C` [compound 46, N-(6-(3-tert-butyl-5-(2-(1,1-dioxidoisothiazolidin-2-yl))-2-methoxyphenyl)naphthalene-2-yl)methanesulfonamide]: the EC50 was in the range of 10 to 100 nM in experiment [1] and 100 to 1000 nM in experiment [4]. The IC50 in experiment [2] and in experiment [3] was 10 to 100 nM in each case.
On to `COc1c(-c2ccc3c(c2)CC=C3CNS(C)(=O)=O)cc(-c2c[nH]c(=O)[nH]c2=O)cc1-c1ccc(C)o1` [compound 44, N-((6-(5-(2,4-dioxo-1,2,3,4-tetrahydropyrimidin-5-yl)-2-methoxy-3-(5-methylfuran-2-yl)phenyl)-1H-inden-3-yl)methyl)methanesulfonamide], for which the EC50 in experiment [1] lay in the range of 10 to 100 nM; in experiment [4], 100 to 1000 nM. In addition, the IC50 in experiment [2] and in experiment [3] was 10 to 100 nM throughout.
